Measurements from PubChem BioAssay (NCI).
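Assay format: 96-well plates, 48-hour exposure. Here, GI50 denotes the concentration required for 50% inhibition of growth. TGI marks complete inhibition of growth.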

Key:
Experiment in all cases: growth of human tumour cells (NCI), 48 h
HT29 colon = system: HT29 colon
HOP-62 NSCLC = system: HOP-62 NSCLC
SF-295 CNS = system: SF-295 CNS
RPMI-8226 leukemia = system: RPMI-8226 leukemia
OVCAR-4 ovarian = system: OVCAR-4 ovarian
CCRF-CEM leukemia = system: CCRF-CEM leukemia
786-0 renal = system: 786-0 renal
SF-539 CNS = system: SF-539 CNS
SK-MEL-28 melanoma = system: SK-MEL-28 melanoma
MCF7 breast = system: MCF7 breast

| Compound | TGI (HT29 colon) | TGI (HOP-62 NSCLC) | TGI (SF-295 CNS) | TGI (RPMI-8226 leukemia) | TGI (OVCAR-4 ovarian) | TGI (CCRF-CEM leukemia) | TGI (786-0 renal) | TGI (SF-539 CNS) | TGI (SK-MEL-28 melanoma) | GI50 (MCF7 breast) | TGI (MCF7 breast) | GI50 (HT29 colon) | GI50 (HOP-62 NSCLC) | GI50 (SF-295 CNS) | GI50 (RPMI-8226 leukemia) | GI50 (OVCAR-4 ovarian) | GI50 (CCRF-CEM leukemia) | GI50 (786-0 renal) | GI50 (SK-MEL-28 melanoma) | GI50 (SF-539 CNS) |
| --- | --- | --- | --- | --- | --- | --- | --- | --- | --- | --- | --- | --- | --- | --- | --- | --- | --- | --- | --- | --- |
| O=[N+]([O-])C=C1c2ccccc2-c2ccccc21 | 37.3 µM | 31.3 µM | 33.5 µM | 5.5 µM | 28.2 µM | 80.8 µM | 30.3 µM | 31.3 µM | 31.1 µM | – | – | – | – | – | – | – | – | – | – | – |
| Cc1c2c(nn1-c1ccc(S(=O)(=O)NC(=S)NC(=O)c3ccccc3)cc1)-c1ccccc1CC2 | > 100 µM | > 100 µM | 48.6 µM | > 100 µM | > 100 µM | > 100 µM | > 100 µM | – | > 100 µM | 35.9 µM | > 100 µM | > 100 µM | > 100 µM | 17.4 µM | 36.3 µM | > 100 µM | > 100 µM | > 100 µM | 41.1 µM | – |
| O=c1cccc2n1CC1CNC[C@H]2C1 | > 100 µM | > 100 µM | > 100 µM | – | > 100 µM | > 100 µM | > 100 µM | – | > 100 µM | – | > 100 µM | – | – | – | – | – | – | – | – | – |
| CC(=O)OCCCC#CC#Cc1cccc(=O)o1 | 71.5 µM | 30.4 µM | 32.7 µM | 20.3 µM | 56.1 µM | – | 35.1 µM | – | 55.8 µM | 20.3 µM | 43.5 µM | 24.9 µM | 15.5 µM | 17.8 µM | 4.19 µM | 24.9 µM | – | 19 µM | 23.9 µM | – |
| C=C1C(=O)C2=CC1CCC(=O)C1(C)CCC(OC(C)=O)C(C)(C)C1CC2O (stereo not drawn) | 10.1 µM | 22.8 µM | 25.6 µM | > 100 µM | 10.8 µM | – | > 37.7 µM | 5.19 µM | > 46.4 µM | – | 3.84 µM | – | – | – | – | – | – | – | – | – |
| COc1cc(O)c2c(c1)C(=O)C1=C(C2=O)C(O)C[C@@](C)(O)C1 (stereo partly drawn) | 2.39 µM | 21.2 µM | 7.32 µM | 6.52 µM | 3.01 µM | > 24.9 µM | 9.25 µM | 5.74 µM | 3.15 µM | – | – | – | – | – | – | – | – | – | – | – |
| CCCCCCCCCCCCCCCCN(CC)CC | 4.59 µM | 8.77 µM | 3.55 µM | 4.75 µM | 11.1 µM | – | 3.1 µM | 3.06 µM | 3.84 µM | 2.33 µM | 6.09 µM | 2.13 µM | 2.87 µM | 1.73 µM | 2.23 µM | 3.31 µM | – | 1.69 µM | 1.91 µM | 1.67 µM |
| C=C1CC2(CCS(=O)(=O)c3ccccc32)OC1=O (stereo not drawn) | 31.7 µM | 46.8 µM | 45 µM | 10.6 µM | 26.7 µM | 11 µM | 15.7 µM | 18.1 µM | 27.8 µM | – | – | – | – | – | – | – | – | – | – | – |
| N#CC1=C(N)Oc2c(sc3c(Br)cccc23)C1c1ccc(Cl)cc1 (stereo not drawn) | 2.85 µM | 6.42 µM | 0.869 µM | 9.25 µM | 16.1 µM | 2.36 µM | 2.71 µM | – | 4.45 µM | 0.295 µM | 5.07 µM | 0.711 µM | 0.89 µM | 0.276 µM | 0.496 µM | 1.13 µM | 0.368 µM | 0.663 µM | 1.15 µM | – |
| O=C1c2cc(F)ccc2-c2c1c1ccc([N+](=O)[O-])cc1c(=O)n2CCCBr | > 100 µM | 8.64 µM | > 100 µM | 51.8 µM | > 100 µM | > 100 µM | 9.31 µM | – | > 100 µM | 1.35 µM | > 100 µM | 19.6 µM | 2.28 µM | 17.8 µM | 5.98 µM | > 100 µM | 15.6 µM | 1.96 µM | 69.6 µM | – |
| Cc1ccc(Sc2ccccc2N)cc1 | > 100 µM | 29.6 µM | > 100 µM | 53.4 µM | > 100 µM | 70 µM | > 100 µM | 87.9 µM | > 100 µM | – | – | – | – | – | – | – | – | – | – | – |
| O=C(CSSCC(=O)Nc1ccc(Br)cc1)Nc1ccc(Br)cc1 | 47.6 µM | 25.9 µM | 28 µM | 64.3 µM | 35.4 µM | – | 31.4 µM | 31.6 µM | 32.4 µM | – | – | – | – | – | – | – | – | – | – | – |
| CCOC(=O)CN(c1ccccc1)c1nc(=[N+](C)C)ss1 | – | > 100 µM | – | 55.5 µM | 32.7 µM | 36.5 µM | > 100 µM | > 100 µM | > 100 µM | – | – | – | – | – | – | – | – | – | – | – |
| C=C1C(=O)O[C@H]2[C@H]1CC/C(CNC(=O)/C=C/c1ccccc1F)=C\CC[C@@]1(C)O[C@@H]21 | 3.08 µM | 16.6 µM | 20.9 µM | 5.84 µM | 4.57 µM | 2.92 µM | 3.71 µM | 2.94 µM | 6.19 µM | – | – | 1.22 µM | 3.89 µM | 7.16 µM | 1.41 µM | 1.66 µM | 0.416 µM | 1.59 µM | 1.95 µM | 1.26 µM |
| N#CCc1nnc(N)o1 | – | – | > 100 µM | > 100 µM | – | > 100 µM | > 100 µM | > 100 µM | > 100 µM | – | – | – | – | – | – | – | – | – | – | – |
| CN1C(=O)C2(c3ccccc31)C1CC3C(CO1)C1C2C3(CO)CN1C#N (stereo not drawn) | > 100 µM | > 100 µM | > 100 µM | > 100 µM | > 100 µM | > 100 µM | > 100 µM | – | > 100 µM | – | > 100 µM | – | – | – | – | – | – | – | – | – |
| COc1cccc(C2SCc3nc4ccccc4n32)c1 (stereo not drawn) | > 100 µM | > 100 µM | > 100 µM | – | > 100 µM | > 100 µM | > 100 µM | > 100 µM | > 100 µM | – | – | – | – | – | – | – | – | – | – | – |
| COC(=O)C1[C@H](c2ccc3c(c2)OCO3)OC(=O)[C@]1(C(=O)OC)C(=O)c1ccc(OC)c(OC)c1 (stereo partly drawn) | > 100 µM | > 100 µM | > 100 µM | > 100 µM | > 100 µM | > 100 µM | > 100 µM | – | – | – | – | – | – | – | – | – | – | – | – | – |
| c1ccc2c(CNCCCCCCCCNCc3cccc4ccccc34)cccc2c1 | 3.35 µM | 30.1 µM | 3.32 µM | 3.87 µM | 5.28 µM | 5.21 µM | 3.31 µM | 3.04 µM | 3.32 µM | – | – | – | – | – | – | – | – | – | – | – |
